Data published in patent US5652220A, “Encapsulation of TRH or its analog” (Takeda Chemical Industries, Ltd., priority 1986, dated 1997).

Key:
[1] = drug trapping percentage into microcapsules (amount actually incorporated vs amount charged); format: physicochemical; conditions: comparison microcapsules, 53 mg TRH, w/o emulsion viscosity about 2,000 cp
Experimental: (§1) The microcapsules obtained by charging TRH in an amount of 1-20% based on PLGA and following the above procedure were tested for drug trapping percentage (percentage of amount actually incorporated into microcapsules to amount charged) and further assayed, in an in vitro dissolution test, for residual TRH in microcapsules after one day of standing in phoshpate buffer (pH 7.0) at 37° C.
(§2) For these microcapsules, the percentage of trapping of CG-3509 was determined and the residual CG-3509 in the microcapsules after one-day standing in phosphate buffer (pH 7.0) at 37° C. was assayed in an in vitro dissolution test.

[2] = in vitro dissolution test: residual drug in microcapsules standing in phosphate buffer (pH 7.0) at 37° C.; format: physicochemical
Experimental: as §1
(b) 1/30M phosphate buffer (pH 7.0), 37° C. (mean for n = 2).
The microcapsules obtained by the procedure of Example 1 were examined for in vitro drug release property and for in vivo drug release property after subcutaneous administration to rats (the residual drug amount in microcapsules at the site of administration was determined).
as §2

NC(=O)[C@@H]1CCCN1C(=O)[C@H](Cc1cnc[nH]1)NC(=O)[C@@H]1CCC(=O)N1 [TRH, pyroGlu-His-ProNH2]
trapping percentage ([1]; 4 g PLGA, TRH to PLGA 1.33%): 77%
trapping percentage ([1]; 6 g PLGA, TRH to PLGA 0.88%): 98%
first day release ([2]; Example 2, TRH 2% relative to PLGA, free form or strong acid added): 15.8%
initial release ([2]; Example 2, acetic acid added, TRH 2% relative to PLGA): 33.2%
release of the first day ([2]; TRH concentration relative to PLGA 1%): 65.7%
initial release ([2]; acetic acid added, TRH 5% relative to PLGA): 22.6%
initial release ([2]; comparison microcapsules, TRH to PLGA 0.88%): 67%
initial release ([2]; comparison microcapsules, TRH to PLGA 1.33%): 71%
